Measurements: paper PMC8857485, “Prostate secretory protein 94 inhibits sterol binding and export by the mammalian CAP protein CRISP2 in a calcium-sensitive manner” (The Journal of Biological Chemistry, 2022)
Positions count from the first letter of the chain named. Where a name gives a salt, the structure may show the parent alone. Read-outs that look alike come from different tables or passages of the source.

Assays:
[1] = biological target: T1, CRISP2^L98G Y99P (Homo sapiens, UniProt P16562, L98G/Y99P); test: MST binding to CRISP2 double mutant L98G Y99P; parameters: species or system mammalian
T1 construct: made in house; host or cells: E. coli
T1 sequence (P16562 22-243 L98G/Y99P): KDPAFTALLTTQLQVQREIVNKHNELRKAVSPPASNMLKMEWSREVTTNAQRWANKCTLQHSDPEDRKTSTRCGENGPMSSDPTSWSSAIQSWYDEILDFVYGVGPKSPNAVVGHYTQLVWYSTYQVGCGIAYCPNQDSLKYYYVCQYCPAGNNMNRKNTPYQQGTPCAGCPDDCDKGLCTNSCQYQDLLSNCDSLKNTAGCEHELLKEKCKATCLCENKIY
Protocol: (§1) Next, we generated all three double mutant combinations of CRISP2: N97P L98G, N97P Y99P, and L98G Y99P. These three double mutant versions of CRISP2 were again expressed as His-tagged proteins in E. coli and purified, and their capacity to bind sterols in the presence or absence of PSP94 was assessed by MST. […] The capacity of the CRISP2^L98G Y99P double mutant to bind sterols even in the presence of PSP94 was confirmed by the in vivo sterol export assay (Fig. 6, A and B). When expressed in yeast cells, the CRISP2^L98G Y99P double mutant was stably expressed and secreted as monitored by Western blotting (Fig. 6C).
(§2) MST experiments were performed to assess protein–protein, protein–lipid, and protein–calcium interactions using a Monolith NT.115 (Nanotemper Technologies). Proteins were labeled using the RED-tris-NTA His tag protein labeling kit. Labeled CAP proteins, 100 nM, were mixed with a serial dilution of unlabeled PSP94, PSP9^F24G, cholesterol sulfate, or calcium chloride, prepared in binding buffer (20 mM Tris pH 7.5, 30 mM NaCl, 0.05% Triton X-100). Samples were loaded into MST standard capillaries, and MST measurements were performed using an 80% laser power setting. The dissociation constant Kd was obtained by plotting the normalized fluorescence (Fnorm) against the logarithm of ligand concentration. Experiments were performed in triplicates, and data were fitted using the Kd model of the MO.Affinity Analysis software (Nanotemper Technologies). For binding inhibition studies, CAP proteins and PSP94 were preincubated for 5 min at 24 °C before performing binding studies with cholesterol sulfate.

[2] = biological target: T2, CRISP2^N97P L98G (Homo sapiens, UniProt P16562, L98G/N97P); test: MST binding to CRISP2 double mutant N97P L98G; parameters: species or system mammalian; conditions: absence of PSP94, read-out: Kd, sterol binding by CRISP2^N97P L98G
T2 construct: made in house; host or cells: E. coli
T2 sequence (P16562 22-243 N97P/L98G): T1 sequence (P16562 22-243 L98G/Y99P) with N76P, P78Y
Protocol: as §1
as §2, with “Experiments were performed in triplicates, and data were fitted using the Kd model of the MO.Affinity Analysis software (Nanotemper Technologies). For binding inhibition studies, CAP proteins and PSP94 were preincubated for 5 min at 24 °C before performing binding studies with cholesterol sulfate.” left out

[3] = biological target: T3, CRISP2^N97P Y99P (Homo sapiens, UniProt P16562, N97P/Y99P); test: MST binding to CRISP2 double mutant N97P Y99P; parameters: species or system mammalian; conditions: absence of PSP94, read-out: Kd, sterol binding by CRISP2^N97P Y99P
T3 construct: made in house; host or cells: E. coli
Protocol: as §1
as §2, with “Experiments were performed in triplicates, and data were fitted using the Kd model of the MO.Affinity Analysis software (Nanotemper Technologies). For binding inhibition studies, CAP proteins and PSP94 were preincubated for 5 min at 24 °C before performing binding studies with cholesterol sulfate.” left out

[4] = biological target: T4, CAP domain of Pry1 (Pry1^CAP) (Saccharomyces cerevisiae, UniProt P47032); test: MST binding to the CAP domain of Pry1
T4 construct: made in house; host or cells: E. coli BL21
From the text: To confirm the direct interaction of PSP94 with CRISP3 and to test whether PSP94 would also bind other CAP family members such as yeast Pry1, or CRISP2, we performed in vitro protein binding assay using microscale thermophoresis (MST). Therefore, PSP94 and the CAP family members, Pry1, CRISP2, and CRISP3, were expressed as fusion proteins with a C-terminal polyhistidine tag in Escherichia coli, and the proteins were affinity purified on nickel-NTA agarose beads. The purified CAP proteins were then fluorescently labeled using RED-tris-NTA and incubated with varying concentrations of PSP94. […] PSP94 thus has high binding affinity for all three CAP proteins tested, and it also binds the CAP domain of Pry1 (Pry1^CAP) alone.
DNA encoding proteins of interest were PCR amplified and cloned into NcoI and XhoI restriction sites of pET22b, which contains a PelB signal sequence to direct the secretion of expressed protein into the periplasmic space. […] Protein concentration was determined by Lowry assay using the Folin reagent and bovine serum albumin as protein standard.
MST experiments were performed to assess protein–protein, protein–lipid, and protein–calcium interactions using a Monolith NT.115 (Nanotemper Technologies). […] The dissociation constant Kd was obtained by plotting the normalized fluorescence (Fnorm) against the logarithm of ligand concentration. […]

T4 sequence (P47032 167-281 limits assumed): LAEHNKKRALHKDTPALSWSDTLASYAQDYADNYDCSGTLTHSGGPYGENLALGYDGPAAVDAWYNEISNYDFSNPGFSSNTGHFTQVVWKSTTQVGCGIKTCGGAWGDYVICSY
T3 sequence (P16562 22-243 N97P/Y99P): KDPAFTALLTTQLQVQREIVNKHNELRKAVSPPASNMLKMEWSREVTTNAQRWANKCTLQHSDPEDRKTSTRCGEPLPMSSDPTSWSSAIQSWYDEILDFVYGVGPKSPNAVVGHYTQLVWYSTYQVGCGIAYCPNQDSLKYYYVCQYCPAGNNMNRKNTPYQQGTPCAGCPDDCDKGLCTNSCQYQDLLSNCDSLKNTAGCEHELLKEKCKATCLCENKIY

Structure (SMILES): CC(C)CCC[C@@H](C)[C@H]1CC[C@H]2[C@@H]3CC=C4C[C@@H](OS(=O)(=O)O)CC[C@]4(C)[C@H]3CC[C@]12C [cholesterol sulfate]
- Kd ([1]; +PSP94, read-out: Kd, sterol binding by CRISP2^L98G Y99P in presence of PSP94): 500 nM
- Kd ([1]; PSP94^F24G preincubated 5 min at 24 °C, read-out: Kd, sterol binding by CRISP2^L98G Y99P in presence of PSP94^F24G): 4500 ± 2080 nM
- Kd ([1]; absence of PSP94, read-out: Kd, sterol binding by CRISP2^L98G Y99P): 2200 ± 1700 nM
- Kd [2]: 3800 ± 1900 nM
- Kd [3]: 2700 ± 2300 nM
- Kd ([4]; PSP94^F24G preincubated 5 min at 24 °C, read-out: Kd, sterol binding by Pry1^CAP in presence of PSP94^F24G): 4140 ± 920 nM
- Kd ([4]; absence of PSP94, read-out: Kd, sterol binding by Pry1^CAP): 900 ± 1900 nM
